Source: patent US6825230B2, “Spiro and dispiro 1,2,4-trixolane antimalarials” (Medicines for Malaria Venture MMV, priority 2002, dated 2004)
Converted amounts (≈) assume the structure as drawn. Where two headings read alike, the source gives them in different places.

Tests used:
[1] = tested on: chloroquine-resistant K1 strain of P. falciparum; test: In vitro antimalarial semiautomated microdilution assay ([3H]-hypoxanthine incorporation), K1 strain; assay type: cell-based, Plasmodium falciparum; conditions: Plasmodium falciparum
Outline: (§1)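 Asynchronous stock-culture parasites (intraerythrocytic forms), serial compound dilutions; readout [3H]-hypoxanthine uptake; IC50 via Logit regression.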

[2] = tested on: chloroquine-sensitive NF54 strain of P. falciparum; test: In vitro antimalarial semiautomated microdilution assay ([3H]-hypoxanthine incorporation), NF54 strain; assay type: cell-based, Plasmodium falciparum; conditions: Plasmodium falciparum
Outline: as §1

[3] = tested on: ANKA strain of P. berghei; test: Single dose STI in vivo screen in infected mice; design: species or system Plasmodium berghei; conditions: for Survival (days) 10 mg/kg po: single 10 mg/kg po in 3% ethanol and 7% Tween 80; for Survival (days) 10 mg/kg po / Survival (days) 10 mg/kg SSV po / Survival (days) 10 mg/kg sc: untreated 6-7 days; for Activity (%) 10 mg/kg po: single 10 mg/kg po in 3% ethanol and 7% Tween 80 on day 1 post-infection; for Activity (%) 10 mg/kg po / Activity (%) 10 mg/kg SSV po / Activity (%) 10 mg/kg sc / Activity (%) 3 mg/kg SSV po: percent reduction in parasitemia on day 3; for Survival (days) 10 mg/kg SSV po: single 10 mg/kg po in SSV; for Activity (%) 10 mg/kg SSV po: single 10 mg/kg po in standard suspending vehicle (SSV) on day 1 post-infection; for Survival (days) 10 mg/kg sc: single 10 mg/kg sc in 3% ethanol and 7% Tween 80; for Activity (%) 10 mg/kg sc: single 10 mg/kg sc in 3% ethanol and 7% Tween 80 on day 1 post-infection; for Survival (days) 3 mg/kg SSV po / Activity (%) 3 mg/kg SSV po: single 3 mg/kg po in SSV
[4] = chloroquine-resistant K1 strain, 72 h incubation, read-out: IC50 (ng/ml) K1
[5] = chloroquine-sensitive NF54 strain, 72 h incubation, read-out: IC50 (ng/ml) NF54
[6] = K1, 72 h, read-out: IC50 (ng/ml) K1, chloroquine-resistant K1 strain, 72 h incubation
[7] = NF54, 72 h, read-out: IC50 (ng/ml) NF54, chloroquine-sensitive NF54 strain, 72 h incubation

Structure (SMILES)	IC50 [1, 4]	IC50 [2, 5]	Survival (days) 10 mg/kg po [3]	Activity (%) 10 mg/kg po [3]	Survival (days) 10 mg/kg SSV po [3]	Activity (%) 10 mg/kg SSV po [3]	Survival (days) 10 mg/kg sc [3]	Activity (%) 10 mg/kg sc [3]	IC50 [1, 6]	IC50 [2, 7]	Survival (days) 3 mg/kg SSV po [3]	Activity (%) 3 mg/kg SSV po [3]
C1C2CC3CC1CC(C2)C31OO[C@]2(CC[C@@H](CNC3CC3)CC2)O1 (some centres unmarked) [OZ253]	0.56 ng/mL (≈ 1.68 nM)	0.45 ng/mL (≈ 1.35 nM)	7.0 days	75%	6.7 days	59%	9.3 days	99.82%	–	–	–	–
C1C2CC3CC1CC(C2)C31OO[C@]2(CC[C@@H](CN(C[C@H]3CC[C@]4(CC3)OOC3(O4)C4CC5CC(C4)CC3C5)C3CC3)CC2)O1 (stereo partly drawn) [OZ254, N,N-Bis(cis-adamantane-2-spiro-3′-1′,2′,4′-trioxaspiro[4.5]decane-8′-methyl)cyclopropylamine]	> 100 ng/mL	57 ng/mL (≈ 93.5 nM)	6.0 days	27%	5.7 days	11%	5.7 days	2%	–	–	–	–
O=C(NC[C@H]1CC[C@]2(CC1)OOC1(O2)C2CC3CC(C2)CC1C3)c1ccncc1 (some centres unmarked) [OZ255]	2.2 ng/mL (≈ 5.52 nM)	1.1 ng/mL (≈ 2.76 nM)	9.0 days	99.61%	8.7 days	99.54%	10.0 days	99.92%	–	–	–	–
CS(=O)(=O)NC[C@H]1CC[C@]2(CC1)OOC1(O2)C2CC3CC(C2)CC1C3 (some centres unmarked) [OZ257]	42 ng/mL (≈ 113 nM)	21 ng/mL (≈ 56.5 nM)	8.3 days	99.00%	7.7 days	99.49%	9.7 days	99.84%	–	–	–	–
Clc1ccc2c(NCCNC3CCC4(CC3)OOC3(O4)C4CC5CC(C4)CC3C5)ccnc2c1 (centres unmarked) [OZ258]	5.8 ng/mL (≈ 12 nM)	5.2 ng/mL (≈ 10.7 nM)	6.0 days	75%	6.0 days	70%	10.7 days	99.95%	–	–	–	–
CCOC(=O)CCC[C@H]1CC[C@]2(CC1)OOC1(O2)C2CC3CC(C2)CC1C3 (some centres unmarked) [OZ260]	5.6 ng/mL (≈ 14.8 nM)	4.3 ng/mL (≈ 11.4 nM)	6.7 days	72%	7.0 days	51%	7.7 days	81%	–	–	–	–
O=C(O)CCC[C@H]1CC[C@]2(CC1)OOC1(O2)C2CC3CC(C2)CC1C3 (some centres unmarked) [OZ261]	39 ng/mL (≈ 111 nM)	18 ng/mL (≈ 51.4 nM)	7.0 days	61%	7.0 days	47%	8.0 days	92%	–	–	–	–
CC(=O)NC[C@H]1CC[C@]2(CC1)OOC1(O2)C2CC3CC(C2)CC1C3 (some centres unmarked) [OZ262]	0.63 ng/mL (≈ 1.88 nM)	0.84 ng/mL (≈ 2.5 nM)	11.7 days	96%	12.3 days	98%	10.0 days	99.39%	–	–	–	–
O=C(NC[C@H]1CC[C@]2(CC1)OOC1(O2)C2CC3CC(C2)CC1C3)c1c[nH]cn1 (some centres unmarked) [OZ263]	0.84 ng/mL (≈ 2.17 nM)	1.1 ng/mL (≈ 2.84 nM)	13.0 days	99.53%	13.3 days	99.45%	11.0 days	99.92%	–	–	–	–
O=C(NC[C@H]1CC[C@]2(CC1)OOC1(O2)C2CC3CC(C2)CC1C3)c1cc[n+]([O-])cc1 (some centres unmarked) [OZ264]	1.2 ng/mL (≈ 2.9 nM)	1.5 ng/mL (≈ 3.62 nM)	11.0 days	99.61%	10.3 days	99.92%	13.7 days	99.97%	–	–	–	–
NC(=O)NC[C@H]1CC[C@]2(CC1)OOC1(O2)C2CC3CC(C2)CC1C3 (some centres unmarked) [OZ265]	0.56 ng/mL (≈ 1.66 nM)	1.6 ng/mL (≈ 4.76 nM)	13.0 days	99%	9.7 days	98%	11.7 days	99.67%	–	–	–	–
CN(C)C(=O)NC[C@H]1CC[C@]2(CC1)OOC1(O2)C2CC3CC(C2)CC1C3 (some centres unmarked) [OZ266]	1.1 ng/mL (≈ 3.02 nM)	1.5 ng/mL (≈ 4.12 nM)	13.7 days	99%	11.7 days	99.39%	11.7 days	99.75%	–	–	–	–
CN1CCN(C(=O)NC[C@H]2CC[C@]3(CC2)OOC2(O3)C3CC4CC(C3)CC2C4)CC1 (some centres unmarked) [OZ267]	0.2 ng/mL (≈ 0.477 nM)	0.34 ng/mL (≈ 0.81 nM)	8.3 days	99.92%	8.7 days	99.89%	9.3 days	99.97%	–	–	–	–
NC(=O)C(=O)NC[C@H]1CC[C@]2(CC1)OOC1(O2)C2CC3CC(C2)CC1C3 (stereo partly drawn) [OZ268, N-(cis-Adamantane-2-spiro-3′-1′,2′,4′-trioxaspiro[4.5]decane-8′-methyl)oxamide]	0.44 ng/mL (≈ 1.21 nM)	0.71 ng/mL (≈ 1.95 nM)	9.3 days	99.86%	13.3 days	99.47%	9.7 days	99.92%	–	–	–	–
NC[C@H]1CC[C@@]2(CC1)OOC1(O2)C2CC3CC(C2)CC1C3 (some centres unmarked) [OZ269]	0.32 ng/mL (≈ 1.09 nM)	0.61 ng/mL (≈ 2.08 nM)	10.7 days	98%	11.3 days	86%	9.0 days	99.92%	–	–	–	–
O=C(NC[C@H]1CC[C@]2(CC1)OOC1(O2)C2CC3CC(C2)CC1C3)c1cccc[n+]1[O-] (some centres unmarked) [OZ270]	0.85 ng/mL (≈ 2.05 nM)	1.3 ng/mL (≈ 3.14 nM)	13.7 days	99.17%	12.3 days	99.47%	11.3 days	99.81%	–	–	–	–
FC1(c2ccccc2)CCC2(CC1)OOC1(O2)C2CC3CC(C2)CC1C3 (centres unmarked) [OZ274]	–	–	–	–	7.0/ND days	11/ND %	–	–	5.1 ng/mL (≈ 14.2 nM)	5.7 ng/mL (≈ 15.9 nM)	–	–
OC1(Cc2ccccn2)CCC2(CC1)OOC1(O2)C2CC3CC(C2)CC1C3 (centres unmarked) [OZ275]	–	–	–	–	7.3/ND days	68/ND %	–	–	0.66 ng/mL (≈ 1.78 nM)	0.74 ng/mL (≈ 1.99 nM)	–	–
O=C(C[C@H]1CC[C@]2(CC1)OO[C@]1(O2)C2CC3CC(C2)CC1C3)Nc1nnn[nH]1 [OZ278]	–	–	–	–	7.3/ND days	56/ND %	–	–	23 ng/mL (≈ 59.1 nM)	39 ng/mL (≈ 100 nM)	–	–
O=C1CN(C[C@H]2CC[C@]3(CC2)OOC2(O3)C3CC4CC(C3)CC2C4)CCN1 (some centres unmarked) [OZ285]	1.3 ng/mL (≈ 3.45 nM)	1.8 ng/mL (≈ 4.78 nM)	–	–	8.7 days	99.81%	–	–	–	–	7.6 days	72%
CC(C)(N)CNC[C@H]1CC[C@]2(CC1)OOC1(O2)C2CC3CC(C2)CC1C3 (some centres unmarked) [OZ287]	0.49 ng/mL (≈ 1.34 nM)	0.83 ng/mL (≈ 2.28 nM)	–	–	8.3 days	95%	–	–	–	–	7.2 days	68%
Oc1ccc([C@H]2CC[C@]3(CC2)OOC2(O3)C3CC4CC(C3)CC2C4)cc1 (some centres unmarked) [OZ288]	1.7 ng/mL (≈ 4.77 nM)	2.7 ng/mL (≈ 7.57 nM)	–	–	11.0 days	99.96%	–	–	–	–	8.0 days	82%
c1ccc(CNC[C@H]2CC[C@]3(CC2)OO[C@]2(O3)C3CC4CC(C3)CC2C4)nc1 [OZ292]	0.19 ng/mL (≈ 0.494 nM)	0.26 ng/mL (≈ 0.676 nM)	–	–	7.0 days	74%	–	–	–	–	6.6 days	46%
O=CN1CCN(C(=O)C[C@H]2CC[C@]3(CC2)OO[C@]2(O3)C3CC4CC(C3)CC2C4)CC1 [OZ294]	0.39 ng/mL (≈ 0.932 nM)	0.63 ng/mL (≈ 1.51 nM)	–	–	8.6 days	99.79%	–	–	–	–	7.4 days	70%
O=C(C[C@H]1CC[C@]2(CC1)OO[C@]1(O2)C2CC3CC(C2)CC1C3)NCc1ccccn1 [OZ295]	0.44 ng/mL (≈ 1.07 nM)	0.75 ng/mL (≈ 1.82 nM)	–	–	7.0 days	47%	–	–	–	–	6.4 days	35%
